Earlier results as cited in patent US5143902A, “Glucagon analogs with ASP^9 replacements or deletions” (The Rockefeller University, priority 1991, dated 1992).

Columns and labels:
Conditions in all cases: background
[1] = test system: glucagon receptor
[2] = test system: another binding system in the hepatocyte membrane
[3] = test system: adenylate cyclase

## Nα- trinitrophenyl [12-homoarginine] glucagon
[1]
  binding to the glucagon receptor: does bind to the glucagon receptor
[2]
  activation of another binding system producing inositol trisphosphate and calcium ions: activates another binding system in the hepatocyte membrane leading to the production of inositol trisphosphate and calcium ions
[3]
  activation of adenylate cyclase: without significant activation of adenylate cyclase
